From paper PMC5731698, “Identification and characterization of the three members of the CLC family of anion transport proteins in Trypanosoma brucei” (PLoS ONE, 2017) come the findings set out here.

Experiment [1] has as its target T1, TbVCL2 (Trypanosoma brucei, UniProt Q389H3).
T1 construct: gene Tb10.26.0220; full-length, untagged cRNA in Xenopus laevis oocytes; dimer expected (CLC family), heterodimer with endogenous Xenopus CLC not excluded
T1 sequence (Q389H3 1-941): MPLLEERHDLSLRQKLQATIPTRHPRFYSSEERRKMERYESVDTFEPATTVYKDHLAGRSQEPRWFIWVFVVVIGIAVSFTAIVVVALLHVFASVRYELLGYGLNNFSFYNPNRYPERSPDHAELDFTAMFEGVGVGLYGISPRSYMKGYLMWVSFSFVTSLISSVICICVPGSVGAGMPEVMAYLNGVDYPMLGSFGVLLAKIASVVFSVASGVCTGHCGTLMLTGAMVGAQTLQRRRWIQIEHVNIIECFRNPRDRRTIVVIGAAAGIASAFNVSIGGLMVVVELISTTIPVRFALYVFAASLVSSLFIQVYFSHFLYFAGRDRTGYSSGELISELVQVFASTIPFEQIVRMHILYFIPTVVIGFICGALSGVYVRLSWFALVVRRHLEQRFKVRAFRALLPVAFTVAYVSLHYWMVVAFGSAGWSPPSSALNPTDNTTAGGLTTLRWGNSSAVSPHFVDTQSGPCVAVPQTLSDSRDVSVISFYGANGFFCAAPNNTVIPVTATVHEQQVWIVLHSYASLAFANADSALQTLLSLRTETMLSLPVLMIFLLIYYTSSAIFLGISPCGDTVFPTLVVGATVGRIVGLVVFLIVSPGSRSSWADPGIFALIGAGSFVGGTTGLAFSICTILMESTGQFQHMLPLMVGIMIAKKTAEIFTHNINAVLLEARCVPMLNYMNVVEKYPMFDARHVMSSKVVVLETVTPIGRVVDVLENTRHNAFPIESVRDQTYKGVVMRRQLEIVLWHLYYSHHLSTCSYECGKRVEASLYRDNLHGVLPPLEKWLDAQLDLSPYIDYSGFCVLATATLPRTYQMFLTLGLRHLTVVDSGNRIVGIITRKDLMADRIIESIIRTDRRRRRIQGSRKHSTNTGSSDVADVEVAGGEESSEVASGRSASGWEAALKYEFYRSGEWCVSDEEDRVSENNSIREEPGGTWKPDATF
In words: two-electrode voltage clamp, Xenopus oocytes. Type of experiment: cell-based.

Experiment [2] addresses T2, TbVCL3 (Trypanosoma brucei, UniProt Q381B7).
T2 construct: gene Tb11.01.8420; full-length, untagged cRNA in Xenopus laevis oocytes; dimer expected (CLC family), heterodimer with endogenous Xenopus CLC not excluded
T2 sequence (Q381B7 1-918): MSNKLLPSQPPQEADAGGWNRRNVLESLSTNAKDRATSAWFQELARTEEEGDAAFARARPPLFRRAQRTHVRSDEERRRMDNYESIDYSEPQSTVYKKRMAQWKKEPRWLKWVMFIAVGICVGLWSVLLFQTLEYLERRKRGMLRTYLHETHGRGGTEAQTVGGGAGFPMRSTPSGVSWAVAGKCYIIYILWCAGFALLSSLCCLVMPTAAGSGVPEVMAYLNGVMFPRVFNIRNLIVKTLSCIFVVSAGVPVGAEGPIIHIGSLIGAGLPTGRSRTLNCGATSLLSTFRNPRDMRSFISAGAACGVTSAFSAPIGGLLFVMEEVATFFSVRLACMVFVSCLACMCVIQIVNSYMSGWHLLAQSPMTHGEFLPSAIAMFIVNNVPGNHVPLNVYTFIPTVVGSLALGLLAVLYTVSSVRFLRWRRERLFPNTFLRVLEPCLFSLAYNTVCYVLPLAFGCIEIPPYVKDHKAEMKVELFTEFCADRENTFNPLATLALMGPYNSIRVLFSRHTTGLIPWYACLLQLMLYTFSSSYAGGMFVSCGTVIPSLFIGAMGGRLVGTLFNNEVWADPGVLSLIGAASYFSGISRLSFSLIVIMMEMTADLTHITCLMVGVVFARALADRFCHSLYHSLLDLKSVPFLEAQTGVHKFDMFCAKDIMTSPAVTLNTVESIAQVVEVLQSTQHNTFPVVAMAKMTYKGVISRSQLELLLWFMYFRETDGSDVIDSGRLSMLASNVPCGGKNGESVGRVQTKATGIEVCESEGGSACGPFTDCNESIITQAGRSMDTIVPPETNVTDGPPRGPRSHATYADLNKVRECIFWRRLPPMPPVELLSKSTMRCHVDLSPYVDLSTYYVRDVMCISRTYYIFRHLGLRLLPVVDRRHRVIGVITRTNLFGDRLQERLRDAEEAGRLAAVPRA
In words: two-electrode voltage clamp, Xenopus oocytes. Type of experiment: cell-based. The source says:
two-electrode voltage clamp, Xenopus oocytes on TbVCL3 | TbVCL3-expressing oocytes ...

In the case of `O=S(=O)(O)c1cc(N=C=S)ccc1/C=C/c1ccc(N=C=S)cc1S(=O)(=O)O` [DIDS, 4,4-diisothiocyanostilbene-2,2-disulphonate], the IC50 (usually the concentration needed to halve the response being measured) in experiment [1] turned out to be 30 ± 3 µM; in experiment [2], 56 ± 18 µM.
